Experimental data published in US20220250063A1, “ASSAY SYSTEM, METHODS, AND MULTI-WELL PLATE FOR GAS STIMULATION OF BIOLOGICAL CELLS, PROTEINS OR MATERIALS” (Koniku Inc., priority 2021, published 2022).

Test system: odorant receptor of the modified cells
Assay: Gas stimulation of modified cells expressing different odorant receptors in a 96 well microplate, fluorescence recorded by camera
Type: cell-based
Settings: sample as gas in the gas channel of 96 well microplate 80; for fluorescent response of the responding wells: different ORs in different wells, responding wells (81A: one well; 81C: four wells; 81E: two wells); for fluorescent response of all of the other wells: remaining dark wells (81B: 95 wells; 81D: 92 wells; 81F: 94 wells)
From the text: In a representative example of operation, an empty microplate is placed in the hatch 120 by a technician or automatically using a microplate loader/unloader. The microplate is moved to the disk support, with the wells aligned with the pipettes. The pipetting head holding the pipettes is lowered to position the tips of the pipettes in or near the wells. The pipettes deposit liquid containing cells into the wells. Inlet and outlet gas nozzles or fittings engage the gas channel inlet and outlet in the microplate. In some embodiments, there are more than one inlets and outlets that correspond to the number of channels and number of samples injected. Gas containing a VOC or other candidate molecule or compound sample is injected through the gas channel of the microplate. This may be done manually or via automation.
If the VOC or other candidate molecule or compound in the sample binds and activates the odorant receptor expressed by the cells, a signal is emitted (e.g., emission of fluorescent or luminescent light). The signal is detected by the camera 128 via the optical unit 126. The computer 138 analyzes and records the location (i.e., the well number or position), the intensity, time duration, color, and/or other parameters of the fluorescent light, along with data on the VOC or other candidate molecule or compound momentarily passing through the microplate. The computer 138 may calculate the mean of the pixels for each well in each of the images.
FIG. 14 is an image as recorded by the camera 128 with a sample of benzaldehyde provided into the gas channel of a 96 well microplate 80.
The microplate 80 shown in FIGS. 14-16 has different cells in different wells. As shown, the odorant receptors of different cells bind to different compounds. In each well of the 96 well microplate 80, the cells expressed the same OR. Different ORs were provided into different wells. […] This allows determination of which ORs may best detect menthol. It may also allow for genetically fine tuning the receptors.

SMILES | fluorescent response of the responding wells | fluorescent response of all of the other wells
O=Cc1ccccc1 [benzaldehyde] | strongly fluorescing | not at all
CCCCCc1ccco1 [2-pentylfuran] | strong fluorescent responses | no fluorescent response
CC1CCC(C(C)C)C(O)C1 (stereo not drawn) [menthol] | strong fluorescent responses | no fluorescent response
